The values below come from US6395733B1, “Heterocyclic ring-fused pyrimidine derivatives” (Pfizer Inc, priority 1999, dated 2002).

Series [1] deals with transplanted human mammary carcinoma which expresses epidermal growth factor receptor tyrosine kinase (EGFR). Conditions: athymic nude mice; cited from earlier work.
Series [2] relates to another carcinoma which does not express the EGF receptor. Conditions: athymic nude mice; cited from earlier work.

In the case of `c1ccc(Nc2ncnc3cnccc23)cc1`, the melting point (in general, the temperature, or range, at which the solid turns liquid) was determined as 161 °C.

Regarding `C#Cc1cccc(Nc2ncnc3cc(C)ncc23)c1.Cl`, the melting point was in the range of 240 to 241 °C. Compound `C#Cc1cc(Nc2ncnc3cnc(C)cc23)ccc1F` had a melting point of 225 °C. `Cc1cc2c(Nc3ccc(Br)c(F)c3)ncnc2cn1.Cl` displayed a melting point of 251 to 254 °C.

Consider `Cl.Clc1ccc2c(c1)N(c1ncnc3[nH]ccc13)CC2`, for which the melting point is 266 °C (dec.).

For the compound `Cc1cc2c(Nc3ccc(F)c(C)c3)ncnc2cn1.Cl`, the melting point was 246 to 250 °C. Same read-out and setting: the result for `Cc1cc2c(N3CCc4ccc(Br)c(C)c43)ncnc2cn1.Cl` reads 212 to 229 °C; that for `CS(=O)(=O)O.Cc1cc2c(Nc3ccc4[nH]ccc4c3)ncnc2cn1`, 262 to 263 °C; that for `Clc1ccc2c(c1)N(c1ncnc3cnccc13)CC2`, 194 to 196 °C.

Turning to `Cc1cc2c(N3CCc4ccc(Cl)cc43)ncnc2cn1`, the melting point was in the range of 232 to 234 °C. For the compound `O=CN/C=C/c1cc(O)ccc1O` [erbstatin], the “growth of transplanted human mammary carcinoma expressing EGFR” value in series [1] is on record as “selectively attenuates the growth”. In addition, the “growth of carcinoma not expressing the EGF receptor” value in series [2] is recorded as “without effect on the growth”. Regarding `Cc1cc2c(Nc3ccc(F)c(Cl)c3)ncnc2cn1.Cl`, the melting point lay in the range of 251 to 258 °C. `Cc1cc2c(N3CCc4cc(F)c(Br)cc43)ncnc2cn1.Cl` returned a melting point of 262 to 264 °C. Turning to `Cl.c1nc(Nc2ccc3[nH]ccc3c2)c2cc[nH]c2n1`, the melting point is 218 to 221 °C. Take `Oc1cc2ncnc(N3CCc4ccc(Cl)cc43)c2[nH]1`: the melting point is 250 °C (dec.). On the same count and under the same terms, for `C#Cc1cccc(Nc2ncnc3cnc(C)cc23)c1.Cl` the value was 250 to 252 °C; for `Cc1cc2c(Nc3ccc(O)c(I)c3)ncnc2cn1.Cl`, 261 to 265 °C; for `Cc1cc2c(N3CCc4c(Br)ccc(C)c43)ncnc2cn1.Cl`, 232 to 244 °C. In turn, `Cc1cc2c(Nc3cccc(C(F)(F)F)c3)ncnc2cn1.Cl` registered a melting point of 269 to 270 °C. In turn, `Cc1cc2c(Nc3ccc(O)c(C)c3)ncnc2cn1.Cl.Cl` displayed a melting point of 298 to 305 °C. The compound `C#Cc1cccc(Nc2ncnc3c2ccn3CCOCCOC)c1` yielded a melting point of 240 to 241 °C. Regarding `Cl.c1cc2c(Nc3ccc4sccc4c3)ncnc2cn1`, the melting point was 280 to 282 °C. In turn, `Cc1cccc(Nc2ncnc3cnccc23)c1` yielded a melting point of 172 °C. `c1ccc(Nc2ncnc3ncccc23)cc1`: the melting point worked out at 258 °C.
